Common to all, as to experiment: growth of human tumour cells (NCI), 48 h
The test system of test [1] is ACHN renal.
The test system of test [2] is HS 578T breast.
For test [3], the system named is K-562 leukemia.
In test [4] the test system is KM12 colon.
The subject of test [5] is M14 melanoma.
The subject of test [6] is MDA-MB-231 breast.
Test [7] has as its system MOLT-4 leukemia.
Test [8] has as its system NCI-H226 lung.
In test [9] the test system is NCI/ADR-RES ovarian.
The subject of test [10] is OVCAR-3 ovarian.
Test [11] deals with OVCAR-4 ovarian.
For test [12], the system named is PC-3 prostate.
For test [13], the system named is SNB-19 CNS.
The subject of test [14] is SW-620 colon.
The test system of test [15] is T-47D breast.
In test [16] the test system is UACC-257 melanoma.
For test [17], the system named is UO-31 renal.
In test [18] the test system is IGROV1 ovarian.
The subject of test [19] is MALME-3M melanoma.
Test [20] deals with NCI-H522 lung.

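Each compound was tested at five concentrations against cells in 96-well plates for 48 hours. At the TGI there is no net growth.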 Bounds are passed on as bounds.

For the compound `COc1ccccc1/C=C1\S/C(=N/Nc2nc(C)c(C(C)=O)s2)NC1=O`, the TGI in [1] is over 100 µM; in [2], 70.1 µM; in [3], over 100 µM; in test [4], over 100 µM; in [5], over 100 µM; in test [6], 65 µM. Besides, the TGI in test [7] was over 100 µM; in test [8], 39.8 µM; in test [9], over 100 µM; in [10], 56.1 µM; in test [11], over 100 µM; in test [12] it was over 100 µM. Also, the TGI is over 100 µM in [13]; over 100 µM in test [14]; 72.8 µM in [15]; over 100 µM in test [16]; 90.4 µM in test [17].

As for `O=c1[nH][nH]c(=O)n1/N=C/c1ccccc1`, the TGI in [1], in test [2], in test [18], in [3], in test [4] and in test [5] was over 100 µM in each case. The TGI in test [6], in test [7], in test [8], in test [9], in test [10] and in test [12] was over 100 µM throughout. For the same compound, the TGI in [13], in [14], in test [15], in test [16] and in [17] was over 100 µM each time.

`Nc1cc2ncnn2c(SCC(=O)N/N=C/C(Br)=C\c2ccccc2)n1`: the TGI in [1] is 62.7 µM; in [2] it was over 100 µM; in test [18] it was 24.6 µM; in test [3], over 100 µM; in [4], 52.7 µM; in test [19] it was 28.3 µM. The TGI in test [6] is 40 µM; in test [7] it was 71.7 µM; in test [8], 68.6 µM; in test [20], 22.9 µM; in test [9], 91.8 µM; in test [10], 40.5 µM. Also, the TGI in test [12] is 27.7 µM; in test [13] it was over 100 µM; in [14], 30.5 µM; in [15], 9.35 µM; in test [16] it was 25.3 µM; in [17], 32 µM.

Regarding `CO[C@]12S[C@@H]3CCCC[C@@]31C(C)(C)C(=O)N2c1ccccc1`, the TGI in test [1], in [2], in [18], in test [3], in [4] and in [5] was over 100 µM each time. The TGI was over 100 µM in test [19]; over 100 µM in test [6]; 78.2 µM in [7]; over 100 µM in test [20]; 78.8 µM in test [9]; 38.5 µM in test [10]. The TGI in [12] was 96.7 µM; in test [13], over 100 µM; in test [14], over 100 µM; in test [15], over 100 µM; in test [16], over 100 µM; in test [17], over 100 µM.

Regarding `C=CCN1C[C@H](C)N([C@H](c2ccc(C(=O)N(CC)CC)cc2)c2cccc(OC)c2)C[C@H]1C`, the TGI was over 100 µM in test [1]; over 100 µM in test [2]; over 100 µM in test [18]; over 100 µM in [4]; over 100 µM in test [5]; 47 µM in [19]. Besides, the TGI is over 100 µM in test [6]; 99.5 µM in [7]; 95.6 µM in test [8]; over 100 µM in test [20]; over 100 µM in test [9]; 50.5 µM in test [10]. The TGI is over 100 µM in [11]; over 100 µM in test [12]; over 100 µM in test [13]; over 100 µM in test [14]; 65.5 µM in test [15]; 52.3 µM in test [16]. Further, the TGI in test [17] was over 100 µM.

In the case of `c1ccc(-c2c(-c3cccs3)[nH]c(-c3cccs3)c2-c2ccccn2)nc1`, the TGI in test [1] was over 100 µM; in test [2], 59.7 µM; in [18], 59.3 µM; in test [3], 37 µM; in test [4], 62.6 µM; in [5], 40.7 µM. Further, the TGI stood at 77.1 µM in test [19]; 48.7 µM in test [6]; 38.3 µM in test [7]; 49.2 µM in test [8]; 64.8 µM in test [9]; 58.3 µM in test [10]. Besides, the TGI in test [12] is 30.8 µM; in [13] it was over 100 µM; in [14], 68.8 µM; in test [15], 94.9 µM; in test [16] it was 43.6 µM; in test [17] it was 57.3 µM.

Regarding `Cc1cc(S(=O)(=O)Nc2nnc3ccccn23)c(S)cc1Cl`, the TGI in test [1], in [2], in test [18], in test [3], in test [4] and in test [5] was over 100 µM throughout. The TGI in [19], in test [6], in test [7], in [20], in test [9] and in test [10] was over 100 µM each time. Besides, the TGI in test [11], in [12], in [13], in [14], in [15] and in [16] was over 100 µM each time. In addition, the TGI in test [17] is over 100 µM.

Consider `C=CCOCn1cc(F)c(=O)[nH]c1=O`, for which the TGI in test [1], in [2], in [18], in test [3], in [4] and in test [5] was over 100 µM in each case. Also, the TGI in [19], in test [6], in test [7], in [8], in test [20] and in test [12] was over 100 µM each time. The TGI in test [13], in test [14], in test [15], in test [16] and in test [17] was over 100 µM in each case.

Source of the values: PubChem BioAssay (NCI).
